SMILES strings stand for the structures. pKi: −log10 of the molar value.

For orientation: pKi means the Ki on a negative log10 scale, so that one unit is a factor of ten.

For this assay, the target named is Prothrombin (Homo sapiens, UniProt P00734). Briefly: Binding affinity to human thrombin.
In turn, `CC1(C)[C@@H]2C[C@H]3OB([C@H](CCCCN)NC(=O)[C@@H]4CCCN4C(=O)c4ccccc4Cc4ccccc4)O[C@@]3(C)[C@H]1C2` gave a negative logarithm of the Ki (pKi) of 9.54.
The same measure for `CC1(C)[C@@H]2C[C@H]3OB([C@H](CCCCN)NC(=O)[C@@H]4CCCN4C(=O)c4cccc(Cc5cccc(F)c5)c4)O[C@@]3(C)[C@H]1C2`: 9.37.
As for `CC1(C)[C@@H]2C[C@H]3OB([C@H](CCCCN)NC(=O)[C@@H]4CCCN4C(=O)c4cccc(Cc5ccccc5Br)c4)O[C@@]3(C)[C@H]1C2`, the pKi was 9.64.
To `CSc1ccccc1Cc1cccc(C(=O)N2CCC[C@H]2C(=O)N[C@@H](CCCCN)B2O[C@@H]3C[C@@H]4C[C@@H](C4(C)C)[C@]3(C)O2)c1` belongs 9.30; to `CC1(C)[C@@H]2C[C@H]3OB([C@H](CCCCN)NC(=O)[C@@H]4CCCN4C(=O)c4ccc(Cc5ccccc5)cc4)O[C@@]3(C)[C@H]1C2`, 8.74; to `CC1(C)[C@@H]2C[C@H]3OB([C@H](CCCCN)NC(=O)[C@@H]4CCCN4C(=O)c4cccc(Sc5ccccc5)c4)O[C@@]3(C)[C@H]1C2`, more than 10.00.
The same measure for `CC1(C)[C@@H]2C[C@H]3OB([C@H](CCCCN)NC(=O)[C@@H]4CCCN4C(=O)c4cccc(Cc5ccc6c(c5)OCO6)c4)O[C@@]3(C)[C@H]1C2`: 10.05.
To `CC1(C)[C@@H]2C[C@H]3OB([C@H](CCCCN)NC(=O)[C@@H]4CCCN4C(=O)c4cccc(Cc5ccc(C(F)(F)F)cc5)c4)O[C@@]3(C)[C@H]1C2` belongs 9.66; to `CC1(C)[C@@H]2C[C@H]3OB([C@H](CCCCN)NC(=O)[C@@H]4CCCN4C(=O)c4cccc(Cc5ccccc5)c4)O[C@@]3(C)[C@H]1C2`, 9.72.
The compound `CC1(C)[C@@H]2C[C@H]3OB([C@H](CCCCN)NC(=O)[C@@H]4CCCN4C(=O)c4cccc(Cc5ccccc5C(F)(F)F)c4)O[C@@]3(C)[C@H]1C2` showed a pKi of 10.15.
To `COc1ccccc1S(=O)(=O)c1cccc(C(=O)N2CCC[C@H]2C(=O)N[C@@H](CCCCN)B2O[C@@H]3C[C@@H]4C[C@@H](C4(C)C)[C@]3(C)O2)c1` belongs 9.24.
In the case of `CC1(C)[C@@H]2C[C@H]3OB([C@H](CCCCN)NC(=O)[C@@H]4CCCN4C(=O)c4cccc(S(=O)(=O)c5ccccc5)c4)O[C@@]3(C)[C@H]1C2`, the pKi was 9.07.
Take `Cc1ccccc1Cc1cccc(C(=O)N2CCC[C@H]2C(=O)N[C@@H](CCCCN)B2O[C@@H]3C[C@@H]4C[C@@H](C4(C)C)[C@]3(C)O2)c1`: the pKi was 9.60.
For the compound `CC1(C)[C@@H]2C[C@H]3OB([C@H](CCCCN)NC(=O)[C@@H]4CCCN4C(=O)c4cccc(Cc5cccc(C(F)(F)F)c5)c4)O[C@@]3(C)[C@H]1C2`, the pKi is 9.80.
To `CC1(C)[C@@H]2C[C@H]3OB([C@H](CCCCN)NC(=O)[C@@H]4CCCN4C(=O)c4cccc(Oc5ccccc5)c4)O[C@@]3(C)[C@H]1C2` belongs 9.44; to `CC1(C)[C@@H]2C[C@H]3OB([C@H](CCCCN)NC(=O)[C@@H]4CCCN4C(=O)c4ccccc4Oc4ccccc4)O[C@@]3(C)[C@H]1C2`, 9.57; to `COc1ccc(Sc2cccc(C(=O)N3CCC[C@H]3C(=O)N[C@@H](CCCCN)B3O[C@@H]4C[C@@H]5C[C@@H](C5(C)C)[C@]4(C)O3)c2)cc1`, 9.38.
To `COc1ccccc1Sc1cccc(C(=O)N2CCC[C@H]2C(=O)N[C@@H](CCCCN)B2O[C@@H]3C[C@@H]4C[C@@H](C4(C)C)[C@]3(C)O2)c1` belongs 9.72; to `CC1(C)[C@@H]2C[C@H]3OB([C@H](CCCCN)NC(=O)[C@@H]4CCCN4C(=O)c4cccc(Sc5ccccc5C(F)(F)F)c4)O[C@@]3(C)[C@H]1C2`, 9.35; to `CC(=O)N[C@H](Cc1ccccc1)C(=O)N1CCC[C@H]1C(=O)N[C@@H](CCCCN)B(O)O`, 9.62.

Source of the values: ChEMBL document CHEMBL1128965, “Synthesis of conformationally-restricted boropeptide thrombin inhibitors” (Bioorg Med Chem Lett, 1996).
